Assays:
[1] = tested on: 1a-luc Y93H (HCV genotype 1a replicon); experiment: Luciferase replicon transient transfection assay, 1a-luc Y93H; assay type: cell-based, hepatitis C virus; conditions: for EC50: Hepatitis C virus, 96 h, Huh7.5 cells, 4 days
Procedure: (§1) The luciferase replicon transient transfection assay measures the ability of a test compound to inhibit the replication of a transiently-transfected HCV luciferase-bearing wild-type or mutant replicon in cured human hepatoma cells (Huh7.5). The inhibition of HCV replication was measured by quantification of luciferase protein expression. This assay has been validated using a panel of genotype 1a and 1b replicons bearing mutations known to be associated with resistance to BMS-790052. Briefly, subconfluent Huh7.5 cells were electroporated with 10 μg of wild-type or mutant luciferase-bearing HCV replicon RNA. The cells were then seeded in 96-well opaque white plates at 3×10^4 cells/well in 150 μL/well and incubated for 4 hrs at 37° C./5% CO2. Ten 1:5 serial dilutions of each test compound were made in media (DMEM containing glucose, L-glutamine and sodium pyruvate, 10% fetal bovine serum, 100 IU/mL penicillin, 100 μg/mL streptomycin, 2 mM GlutaMAX, and 1×MEM non-essential amino acids (Mediatech, Inc. and Invitrogen Corp.)) at concentrations that were 4× higher than the final concentrations to be tested and 50 μL/well was added to the transfected cells. Untreated, mock-transfected cells served as a negative control of luciferase expression. The plates were incubated at 37° C./5% CO2 for 4 days whereupon the media was removed and 50 μL of ONE-glo luciferase substrate (Promega) was added to each well. The plates were agitated on a rotating platform at room temperature for 3 min and read in a Victor^3V microplate reader (Perkin-Elmer) using a 700 nm cut-off filter with a 1 sec read time. EC50 values were calculated from dose response curves from the resulting best-fit equations determined by Microsoft Excel and XLfit 4.1 software.

[2] = tested on: 1a-luc M28T (HCV genotype 1a replicon); experiment: Luciferase replicon transient transfection assay, 1a-luc M28T; assay type: cell-based, hepatitis C virus
Procedure: as §1

[3] = tested on: ZS11-luc L28T (HCV genotype 1b replicon); experiment: Luciferase replicon transient transfection assay, ZS11-luc L28T; assay type: cell-based, hepatitis C virus
Procedure: as §1

[4] = tested on: HCV genotype 1a replicon, NS3 T260A; experiment: Luciferase replicon transient transfection assay, genotype 1a NS3 T260A; assay type: cell-based, hepatitis C virus
Procedure: as §1
(§2) To determine the replication capacity of each mutant relative to the wild-type parental replicon, transfected cells were plated on two plates and were not treated with compound. Luciferase activity was measured at time points of 4 hrs and 4 days after plating for each replicon. Replication capacity was calculated by dividing the day 4 CPS by the 4 hour CPS for each replicon and determining the percentage present for each mutant replicon relative to wild-type replicon values. The NS3, NS4B, and NS5B mutants were prepared and tested according to the methods described herein.

[5] = tested on: 1a-luc P32L (HCV genotype 1a replicon); experiment: Luciferase replicon transient transfection assay, 1a-luc P32L; assay type: cell-based, hepatitis C virus
Procedure: as §1

[6] = tested on: 1a-luc Y93N (HCV genotype 1a replicon); experiment: Luciferase replicon transient transfection assay, 1a-luc Y93N; assay type: cell-based, hepatitis C virus
Procedure: as §1

[7] = tested on: 1a-luc L31V (HCV genotype 1a replicon); experiment: Luciferase replicon transient transfection assay, 1a-luc L31V; assay type: cell-based, hepatitis C virus; conditions: for EC50: Hepatitis C virus, 96 h, Huh7.5 cells, 4 days
Procedure: as §1

[8] = tested on: 1a-luc Q30H (HCV genotype 1a replicon); experiment: Luciferase replicon transient transfection assay, 1a-luc Q30H; assay type: cell-based, hepatitis C virus
Procedure: as §1

[9] = tested on: HCV genotype 1a replicon, NS4B E15G; experiment: Luciferase replicon transient transfection assay, genotype 1a NS4B E15G; assay type: cell-based, hepatitis C virus
Procedure: as §1, §2

[10] = tested on: 1a-luc Q30R (HCV genotype 1a replicon); experiment: Luciferase replicon transient transfection assay, 1a-luc Q30R; assay type: cell-based, hepatitis C virus
Procedure: as §1

[11] = tested on: ZS11-luc P32L (HCV genotype 1b replicon); experiment: Luciferase replicon transient transfection assay, ZS11-luc P32L; assay type: cell-based, hepatitis C virus
Procedure: as §1

[12] = tested on: ZS11-luc L31F (HCV genotype 1b replicon); experiment: Luciferase replicon transient transfection assay, ZS11-luc L31F; assay type: cell-based, hepatitis C virus
Procedure: as §1

[13] = tested on: ZS11-luc L31V (HCV genotype 1b replicon); experiment: Luciferase replicon transient transfection assay, ZS11-luc L31V; assay type: cell-based, hepatitis C virus; conditions: for EC50: Hepatitis C virus, 96 h, Huh7.5 cells, 4 days
Procedure: as §1

[14] = tested on: 1a-luc Q30K (HCV genotype 1a replicon); experiment: Luciferase replicon transient transfection assay, 1a-luc Q30K; assay type: cell-based, hepatitis C virus
Procedure: as §1

[15] = tested on: 1a-luc L31M (HCV genotype 1a replicon); experiment: Luciferase replicon transient transfection assay, 1a-luc L31M; assay type: cell-based, hepatitis C virus
Procedure: as §1

[16] = tested on: 1a-luc WT (HCV genotype 1a replicon); experiment: Luciferase replicon transient transfection assay, 1a-luc WT; assay type: cell-based; conditions: Hepatitis C virus, 96 h, Huh7.5 cells, 4 days
Procedure: as §1

[17] = tested on: ZS11-luc Y93C (HCV genotype 1b replicon); experiment: Luciferase replicon transient transfection assay, ZS11-luc Y93C; assay type: cell-based, hepatitis C virus
Procedure: as §1

[18] = tested on: ZS11-luc L31M (HCV genotype 1b replicon); experiment: Luciferase replicon transient transfection assay, ZS11-luc L31M; assay type: cell-based, hepatitis C virus
Procedure: as §1

[19] = tested on: ZS11-luc WT (HCV genotype 1b replicon); experiment: Luciferase replicon transient transfection assay, ZS11-luc WT; assay type: cell-based, hepatitis C virus; conditions: Hepatitis C virus, Huh7.5, 96 h, genotype 1b, ZS11-luc WT, Huh7.5 cells, 4 days
Procedure: as §1

[20] = tested on: ZS11-luc Y93H (HCV genotype 1b replicon); experiment: Luciferase replicon transient transfection assay, ZS11-luc Y93H; assay type: cell-based, hepatitis C virus; conditions: for EC50: Hepatitis C virus, 96 h, Huh7.5 cells, 4 days
Procedure: as §1

[21] = tested on: ZS11-luc Y93N (HCV genotype 1b replicon); experiment: Luciferase replicon transient transfection assay, ZS11-luc Y93N; assay type: cell-based, hepatitis C virus
Procedure: as §1

[22] = tested on: 1a-luc Q30E (HCV genotype 1a replicon); experiment: Luciferase replicon transient transfection assay, 1a-luc Q30E; assay type: cell-based, hepatitis C virus; conditions: for EC50: Hepatitis C virus, 96 h, Huh7.5 cells, 4 days
Procedure: as §1

[23] = tested on: 1a-luc Y93C (HCV genotype 1a replicon); experiment: Luciferase replicon transient transfection assay, 1a-luc Y93C; assay type: cell-based, hepatitis C virus
Procedure: as §1

[24] = tested on: HCV genotype 1a replicon, NS5A E295G; experiment: Luciferase replicon transient transfection assay, genotype 1a NS5A E295G; assay type: cell-based, hepatitis C virus
Procedure: as §1

[25] = tested on: ZS11-luc R30E (HCV genotype 1b replicon); experiment: Luciferase replicon transient transfection assay, ZS11-luc R30E; assay type: cell-based, hepatitis C virus
Procedure: as §1

[26] = tested on: HCV genotype 1a replicon, NS5A K24E; experiment: Luciferase replicon transient transfection assay, genotype 1a NS5A K24E; assay type: cell-based, hepatitis C virus
Procedure: as §1

[27] = tested on: 1a-luc L31F (HCV genotype 1a replicon); experiment: Luciferase replicon transient transfection assay, 1a-luc L31F; assay type: cell-based, hepatitis C virus
Procedure: as §1

[28] = Hepatitis C virus, 96 h, Huh7.5 cells, 4 days

SMILES: COC(=O)N[C@H](C(=O)N1CCC[C@H]1c1nc(-c2ccc(-c3ccc(-c4c[nH]c([C@@H]5CCCN5C(=O)[C@@H](NC(=O)OC)C(C)C)n4)cc3)cc2)c[nH]1)C(C)C [BMS-790052, reference compound]
- Ratio [1]: 1392
- EC50 [1]: 35 nM
- Ratio [2]: 165
- EC50 [2, 28]: 4 nM
- Ratio [3]: 25
- EC50 [3, 28]: 0.5 nM
- EC50 ([4]; Hepatitis C virus, genotype 1a, HCV region NS3, mutation T260A): 0.031 nM
- Ratio ([4]; {}): 1.74
- Ratio [5]: 142
- EC50 [5, 28]: 4 nM
- Ratio [6]: 7842
- EC50 [6, 28]: 192 nM
- Ratio [7]: 899
- EC50 [7]: 23 nM
- Ratio [8]: 155
- EC50 [8, 28]: 4 nM
- EC50 ([9]; Hepatitis C virus, HCV region NS4B, mutation E15G): 0.029 nM
- Ratio ([9]; NS4B E15G): 1.62
- Ratio [10]: 95
- EC50 [10, 28]: 2 nM
- Ratio [11]: 9
- EC50 [11, 28]: 0.2 nM
- Ratio [12]: 7
- EC50 [12, 28]: 0.1 nM
- Ratio [13]: 23
- EC50 [13]: 0.4 nM
- Ratio [14]: 752
- EC50 [14, 28]: 19 nM
- Ratio [15]: 115
- EC50 [15, 28]: 3 nM
- EC50 [16]: 0.026 nM
- Ratio [17]: 2
- EC50 [17, 28]: 0.04 nM
- Ratio [18]: 3
- EC50 [18, 28]: 0.06 nM
- EC50 [19]: 0.02 nM
- Ratio [20]: 19
- EC50 [20]: 0.4 nM
- Ratio [21]: 33
- EC50 [21, 28]: 0.7 nM
- Ratio [22]: 2935
- EC50 [22]: 74 nM
- Ratio [23]: 287
- EC50 [23, 28]: 7 nM
- EC50 ([24]; Hepatitis C virus, genotype 1a, HCV region NS5A, mutation E295G): 0.028 nM
- Ratio ([24]; {}): 1.56
- Ratio [25]: 7
- EC50 [25, 28]: 0.1 nM
- EC50 ([26]; Hepatitis C virus, genotype 1a, HCV region NS5A, mutation K24E): 0.032 nM
- Ratio ([26]; {}): 1.78
- Ratio [27]: 43
- EC50 [27, 28]: 1 nM

SMILES: COC(=O)N[C@H](C(=O)N1CCC[C@H]1c1ncc(-c2ccc(-c3cc4sc(-c5ccc(-c6c[nH]c(C7CCCN7C(=O)[C@H](NC(=O)OC)c7ccccc7)n6)cc5)cc4s3)cc2)[nH]1)C(C)C (stereo partly shown) [Compound A192]
- Ratio [1]: 5072
- EC50 [1]: 79 nM
- Ratio [7]: 678
- EC50 [7]: 11 nM
- Ratio [13]: 20
- EC50 [13]: 0.05 nM
- EC50 [16]: 0.02 nM
- EC50 [19]: 0.003 nM
- Ratio [20]: 138
- EC50 [20]: 0.4 nM
- Ratio [22]: 597
- EC50 [22]: 9 nM

SMILES: COC(=O)N[C@H](C(=O)N1CCCC1c1ncc(-c2csc3c(-c4ccc(-c5cnc(C6CCCN6C(=O)C(c6ccccc6)N6CCCCC6)[nH]5)cc4)csc23)[nH]1)C(C)C (stereo partly shown) [Compound A219]
- Ratio [1]: 4841
- EC50 [1]: 210 nM
- Ratio [7]: 442
- EC50 [7]: 18 nM
- Ratio [13]: 4
- EC50 [13]: 0.05 nM
- EC50 [16]: 0.04 nM
- EC50 [19]: 0.01 nM
- Ratio [20]: 49
- EC50 [20]: 0.6 nM
- Ratio [22]: 25
- EC50 [22]: 1 nM

Reference: patent publication US20120252721A1 (priority 2011, published 2012)
